Data set [1] relates to 5 weeks old Zucker (fa/fa) rats. Nature of the data set: Blood insulin and glucose in 5 weeks old Zucker (fa/fa) rats (Example 13). Type of data set: in vivo, rat. Particulars: 300 mg/kg/day oral gavage, 11 days (FIG. 5). The protocol: (§1) Glucose (GLU, Boehringer Mannheim, Germany), free fatty acids (NEFA, C ACS-ACOD kit; Wako Chemicals, Dalton, USA) and b-hydroxybutyrate (310-A kit; Sigma Diagnostics Inc., St. Louis, USA) concentrations were measured using enzymatic methods. Insulin concentrations were determined with radioimmunoassay by (CIS bio International, Gif sur Yvette, France) using rat insulin as standard in the Zucker rats. In the Wistar Charles River rats, plasma glucose concentrations were measured with the aid of Beckman Glucose Analyzer (Fullerton, Calif., USA). Plasma insulin levels were measured using a RIA kit from Linco Research Inc. (St. Charles, Mo., USA). Phospholipids were measured by the enzymatic method of bioMérieux, Marcy-l {grave over ( )}Etoile, France, Triacylglycerol by the Technicon Method no. SA4-0324L90, USA and Cholesterol by the Technicon Method no. SA4-0305L90, USA.
The rats were administered TTA at a dose of 300 mg/kg/day suspended in 0.5% CMC (n=6) by oral gavage. Following 11 days of treatment, rats were killed by cervical dislocation. Blood was collected and the levels of insulin and glucose measured as indicated in the method section. Data are means±S.D.

Data set [2] has as its system high fat diet fed Wistar Charles River rats. Nature of the data set: High fat diet with or without TTA for three weeks, adipose tissue weights (Example 5). The format is in vivo, rat. The following applies: high fat diet + 0.4% TTA for three weeks, mean ± SEM. The protocol: Male Wistar Charles River rats weighing 280-358 grams were purchased from AnLab Ltd. (Prague, Czech Republic) and housed in wire-mesh cages in a temperature (22±1° C.) and light-controlled (light from 7:00 a.m. to 7:00 p.m.) room. They were given free access to chow and water. Three rats were housed per cage. Weight gain and food intake were recorded daily.
High Fat (HF): 1.9% gelatin, 5.7% wheat bran, 7.7% vitamins and minerals, 25.4% corn starch, 25.7% casein, 26.8% beef tallow and 7.1% sunflower oil.
HF+TTA: Same+0.4% TTA dissolved in the beef tallow.
Male Wistar Charles River rats (280-360 g) were fed 3 different diets (see methods) for 3 weeks ad libitum. Afterwards, they were killed by decapitation, liver and epididymal adipose tissue pads were dissected out and weighed.
Feeding the Wistar rats the high fat diet thus increased the epididymal and retroperitoneal fad pad weight.

Data set [3] concerns male Wistar rats. In words: Hepatic levels of triacylglycerol in rats fed fatty acid analogues (Example 17). The format is in vivo, rat. Particulars: TTA 150 mg/kg/day for 6 days, no prefeeding. The text has this: Even an increased hepatic level of triacylglycerol may be relieved by TTA. Feeding rats with an inhibitor of fatty acid oxidation will increase the level of hepatic triacylglycerol resulting in fatty liver. Tetradecyl-4-thia propionic acid (TTP) is a fatty acid analogue with a sulphur atom in the 4 position. This analogue inhibits the β-oxidation of fatty acids due to the formation of a mitochondrial inhibitor. Feeding rats with this analogue results in the formation of fatty. However, if the rats are fed with a combination of TTA and TTP, the formation of fatty liver is avoided (Table 8). This provides evidence that TTA may be used for the treatment of conditions with an increased hepatic level of triacylglycerol. Male Wistar rats had free access to water and rat maintenance chow. They were fed palmitic acid or fatty acid analogues suspended in 0.5% CMC for 6 days. In some experiments TTA or TTP were fed for 3 days before feeding both for 6 days. At the end of the experiment the rats were fasted overnight, killed, the liver removed and homogenized. Triacylglycerol was measured in the homogenate.

Data set [4] deals with dogs. Nature of the data set: 28 days toxicity study in dogs (GLP), oral TTA. Type of data set: in vivo, dog. The source says:
A 28 days toxicity study in dogs according to GLP guide-lines has been performed by Corning Hazleton (Europe), England. […] Some lipid related parameters were lowered in the animals given high dosages. This is consistent with the pharmacological activity of TTA.

Data set [5] relates to 5 weeks old Zucker (fa/fa) rats. Nature of the data set: Intravenous glucose tolerance test (IVGTT) (Example 15). Type of data set: in vivo, rat. The protocol:
Male Zucker (fa/fa) rats (5 weeks old) were anaesthetised after a 5-hours fast, by intraperitoneal injection of sodium pentobarbital (50 mg/kg). The rats were injected with glucose (0.55 g/kg) in the saphenous vein and blood samples were collected from the tail vein in heparinized tubes at time 0, 5, 10, 15, 20 and 30 minutes after the glucose load. Samples were kept on ice, centrifuged and plasma was stored at −20° C. until analysis.

The subject of data set [6] is Wistar Charles River rats. In words: High fat diet induced hyperinsulinemia (Example 11). Type of data set: in vivo, rat. Particulars: HF diet supplemented with TTA, 21 days, overnight fast (FIG. 3). The protocol:
as §1
Rats weighing 280-360 g were divided into 3 groups (n=6) and fed with three different diets: standard rat chow, high fat diet (HF) and HF supplemented with TTA. After 21 days on their respective diets, blood was collected after an overnight fast from the tail vein. The data are shown as mean±SEM. Results were analysed by ANOVA and different letters denote statistical significance (p<0.05).

Data set [7] deals with mouse lymphoma cells, L5178Y. In words: Mutagenicity test in mouse lymphoma cells L5178Y. Type of data set: cell-based. Particulars: 2.5-50 mg/ml. The text has this:
(§2) Tests for mutagenic activity have been performed by Covance Laboratories Limited, England. […] Furthermore, TTA was not mutagenic when tested in mouse lymphoma cells […] L5178Y.

The test system of data set [8] is young obese Zucker (fa/fa) rats. Nature of the data set: Body weight gain, liver and adipose tissue weights in young obese Zucker rats (Example 9). Type of data set: in vivo, rat. The following applies: 5 week-old male obese Zucker (fa/fa) rats, TTA 300/kg/day in 0.5% CMC, 11 days, means ± SD. The protocol:
The obese Zucker (fa/fa) rats used in this study were bred at the U 465 INSERM animal facility from pairs originally provided by the Harriet G. Bird Laboratory (Stow, Mass., USA). Unless otherwise stated, the animals were maintained under a constant light-dark cycle (light from 7:00 a.m. to 7:00 p.m.) at 21±1° C. and were given free access to food and water. Three rats were housed per cage. Weight gains were recorded daily.
5 week-old male obese Zucker (fa/fa) rats fed with TTA, 300/kg/day suspended in 0.5% CMC. Control animals received CMC only. Following 11 days of treatment, rats were killed by cervical dislocation, liver and epididymal adipose tissue pads were dissected out and weighed. Data are means±SD of 6 animals in the control- and 6 animals in the experimental group.

Data set [9] deals with Salmonella typhimurium. Nature of the data set: Test for mutagenic activity in Salmonella typhimurium strains. The following applies: 3-1000 mg/plate (TTA) 2-5000 mg/plate (TSA). Type of data set: cell-based.
Source text: as §2

For the substance Tetradecylthioacetic acid [TTA], in data set [1], the “Reduction of blood concentration of glucose” value is roughly 15% and the “Reduction of blood insulin concentration” value is roughly 40%. For the same substance, in data set [2], the “Epididymal adipose tissue” value is recorded as 3.1 ± 0.2 g, the “Epididymal adipose tissue/body weight (%)” value is recorded as 1.0 ± 0.1%, the “Retroperitoneal adipose tissue” value came out at 2.7 ± 0.2 g and the “Retroperitoneal adipose tissue/body weight (%)” value was 0.8 ± 0.05%. For the same substance, the “Hepatic triacylglycerol TG (μmol/g)” value in data set [3] is reported as 7,7 ± 2,9 μmol/g. Further, the “Effect on body weight” value in data set [4] (500 mg/kg/day) is “body weight loss”. Also, the Evidence of toxicity result in data set [4] (dose levels of 50 or 500 mg/day/kg) is recorded as “no evidence of toxicity”. Moreover, the “Tolerability of oral administration” value in data set [4] (dose levels up to 500 mg/kg/day) is recorded as “generally well tolerated”. Also, the IVGTT glucose curves entry in data set [5] (TTA treated vs control (FIG. 7B)) was “normal and comparable”. In addition, the “Plasma insulin response to glucose (IVGTT)” value in [5] (glucose 0.55 g/kg i.v. (FIG. 7A)) was “significantly lower”. Also, in data set [6], the “High fat diet-induced hyperinsulinemia” value is “prevents high fat diet-induced hyperinsulinemia”. Also, the “Mutagenicity in mouse lymphoma cells L5178Y” value in [7] is listed as “not mutagenic”. For the same substance, in data set [8], the “Body weight gain” value was found to be 6.23 ± 0.28 g/day and the “Epididymal adipose tissue/body weight (%)” value was 0.78 ± 0.02%. In data set [9], the “Induction of mutations in strains of Salmonella typhimurium” value is listed as “did not induce mutations”.

The record behind these values is patent publication US6365628B1 (Thia Medica AS, priority 1998, dated 2002).
